Legend:
[1] = system: nitrite plus nitrate (NOx) in rat serum; test: Serum nitrite plus nitrate (NOx) by Griess colorimetric method; format: in vivo; settings: nebivolol 3 mg/kg i.v.; L-NAME 3 mg/kg, ODQ 1 mg/kg, propranolol 1 mg/kg, sildenafil 0.3 mg/kg
Procedure: Total NO derivatives (nitrites plus nitrates) were measured in pre-filtered (10,000 MW pore size) serum samples from the studied rats by the Griess colorimetric method, using a commercial kit for nitrite and nitrate determination from Cayman Chemical Co. (Ann Arbor, Mich.). Serum concentrations of NOx were determined 10 minutes after nebivolol administration.

anesthetized rats = test: Mean arterial pressure (MAP) and heart rate (HR) in anesthetized rats; format: in vivo, rat (Sprague-Dawley); settings: nebivolol 3 mg/kg i.v.; L-NAME 3 mg/kg, ODQ 1 mg/kg, propranolol 1 mg/kg, sildenafil 0.3 mg/kg i.v.
Procedure: To determine blood pressure and heart rate, Sprague-Dawley rats (250-400 g) were anesthetized with ketolar and diazepam. The right carotid artery was catheterized for constant blood pressure and heart rate measurement by means of a pressure transducer connected to a PowerLab data acquisition system (ADInstruments). The left external jugular vein was catheterized for saline or drug infusion. 3 mg/kg nebivolol (n=6) or vehicle (50% glycofurol; n=4) was administered intravenously in anesthetized rats and MAP and HR were measured. […] The effect of nebivolol in combination with the type 5 phosphodiesterase (PDE-5) inhibitor sildenafil on hypotension and heart rate was studied in rats using the methods described above.

cGMP in rat plasma = test: Plasma cGMP content by ELISA; format: in vivo, rat (Sprague-Dawley); settings: nebivolol 3 mg/kg i.v.; L-NAME 3 mg/kg, ODQ 1 mg/kg, propranolol 1 mg/kg
Procedure: To determine the plasma cGMP content, Sprague-Dawley rats were anesthetized with urethane (1.25 g/kg). The right carotid artery was catheterized for constant blood pressure and heart rate measurement by means of a pressure transducer connected to a PowerLab data acquisition system (ADInstruments). The left external jugular vein was catheterized for saline or drug infusion. After administering the respective treatments, rat plasma samples were collected, immediately frozen and stored at −80° C. until extraction for cyclic nucleotide assay. cGMP was determined by ELISA using a kit from Cayman Chemical Co. Plasmatic cGMP levels were determined 10 minutes after nebivolol administration.

[2] = system: human corpus cavernosum (HCC) strips; test: Relaxation of human corpus cavernosum strips contracted with U46619; format: cell-based; settings: metoprolol 1 μM, atenolol 1 μM, nebivolol 0.3 μM
Procedure: Specimens of human corpus cavernosum were obtained from organ donors and from impotent men at the time of penile prosthesis implantation. Tissues were placed in ice-cold M-400 solution (pH 7.4; 400 mOsm/kg, composition in w/v: 4.19% manitol, 0.2% KH2PO4, 0.97% K2HPO4.3H2O, 0.11% KCl and 0.08% NaHCO3) at the time of removal and transported to the laboratory for utilization within 16 h. Strips of human corpus cavemosum were mounted on force transducers in 8 ml organ baths (37° C.) containing physiological salt solution (PSS) continuously bubbled with 95% O2/5% CO2 mixture to maintain a pH of 7.4. Strips were contracted with the thromboxane receptor agonist U46619 (1-3 nM) and relaxation responses were evaluated by cumulative additions of compounds to the chambers.

[3] = system: human penile resistance arteries (HPRA); test: Relaxation of human penile resistance arteries contracted with U46619 (myograph); format: cell-based; design: effect on endothelium-dependent relaxation of HPRA caused by acetylcholine / effect on sildenafil-mediated relaxation of HPRA: unit of the concentration uncertain; settings: metoprolol (1 (unit uncertain)), atenolol (1 (unit uncertain)), nebivolol (0.3 (unit uncertain))
Procedure: Specimens of human corpus cavernosum were obtained from organ donors and from impotent men at the time of penile prosthesis implantation. Tissues were placed in ice-cold M-400 solution (pH 7.4; 400 mOsm/kg, composition in w/v: 4.19% manitol, 0.2% KH2PO4, 0.97% K2HPO4.3H2O, 0.11% KCl and 0.08% NaHCO3) at the time of removal and transported to the laboratory for utilization within 16 h.
To determine the resistance of penile small arteries, helicine arteries (lumen diameter 150-400 μm) which are the terminal branches of deep penile arteries, were dissected by carefully removing the adhering trabecular tissue, and arterial ring segments (2 mm long) were subsequently mounted on two 40 μm wires on microvascular double Halpern-Mulvany myographs (J.P. Trading, Aarhus, Denmark) for isometric tension recordings. The chambers were filled with PSS continuously bubbled with 95% O2/5% CO2 mixture to maintain a pH of 7.4. […]

| Compound | effect on nebivolol-induced increment in serum NOx [1] | effect on heart rate reduction caused by nebivolol (anesthetized rats) | effect on hypotension caused by nebivolol (anesthetized rats) | effect on nebivolol-induced increase in plasma cGMP (cGMP in rat plasma) | effect on acetylcholine-induced endothelium-dependent relaxation of HCC strips [2] | effect on endothelium-dependent relaxation of HPRA caused by acetylcholine [3] |
| --- | --- | --- | --- | --- | --- | --- |
| COC(=O)[C@@H](N)CCCNC(=N)N[N+](=O)[O-] [L-NAME, Nω-nitro-L-arginine methyl ester] | prevents this effect | did not affect | significantly reduced | slightly reduced | – | – |
| O=c1onc2cnc3ccccc3n12 [ODQ, 1-H-(1,2,4)oxadiazolo(4,3-alpha)quinoxaline-1-one] | prevents this effect | did not significantly modify | did not significantly modify | slightly reduced | – | – |
| COCCc1ccc(OCC(O)CNC(C)C)cc1 (stereo not shown) [metoprolol] | – | – | – | – | not significantly modified | not affected |
| CC(C)NCC(O)COc1cccc2ccccc12 (stereo not shown) [propranolol] | – | significantly reduced the impact | without affecting | not influenced | – | – |

Reference: patent US20090181975A1, “NEBIVOLOL IN THE TREATMENT OF SEXUAL DYSFUNCTION” (FOREST LABORATORIES HOLDINGS LIMITED, priority 2008, published 2009)
